Reference: ChEMBL document CHEMBL1201862, “PubChem BioAssay data set” (2004)
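Tested at 5 concentrations; 48 h exposure; 96-well plates; endpoints linearly interpolated, else capped at highest concentration. Abbreviation: GI50, concentration required for 50% inhibition of growth.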 The source made the active and inactive calls. No stated cut-off is given here; in the data, active = GI50 up to about 1.1 µM and inactive = higher.

Key:
Test in all cases: growth of human tumour cells (NCI), 48 h
SR = tested on: SR
HCT-15 = tested on: HCT-15
BT-549 = tested on: BT-549
PC-3 = tested on: PC-3
U-251 = tested on: U-251
NCI-H23 = tested on: NCI-H23
786-0 = tested on: 786-0
SK-MEL-2 = tested on: SK-MEL-2
TK-10 = tested on: TK-10
HOP-62 = tested on: HOP-62
SW-620 = tested on: SW-620
SN12C = tested on: SN12C
KM12 = tested on: KM12
OVCAR-3 = tested on: OVCAR-3
LOX IMVI = tested on: LOX IMVI
EKVX = tested on: EKVX
MCF7 = tested on: MCF7
HCT-116 = tested on: HCT-116
DU-145 = tested on: DU-145
ACHN = tested on: ACHN
K562 = tested on: K562
SK-MEL-28 = tested on: SK-MEL-28
COLO 205 = tested on: COLO 205
M14 = tested on: M14
UO-31 = tested on: UO-31
Malme-3M = tested on: Malme-3M
CAKI-1 = tested on: CAKI-1
SK-OV-3 = tested on: SK-OV-3
NCI-H522 = tested on: NCI-H522
CCRF-CEM = tested on: CCRF-CEM
Hs-578T = tested on: Hs-578T
MDA-MB-435 = tested on: MDA-MB-435
MOLT-4 = tested on: MOLT-4
HCC 2998 = tested on: HCC 2998
MDA-N = tested on: MDA-N
UACC-257 = tested on: UACC-257
OVCAR-4 = tested on: OVCAR-4
HT-29 = tested on: HT-29
RXF 393 = tested on: RXF 393
RPMI-8226 = tested on: RPMI-8226
IGROV-1 = tested on: IGROV-1
SF-295 = tested on: SF-295
T47D = tested on: T47D
SNB-75 = tested on: SNB-75
MDA-MB-231 = tested on: MDA-MB-231
NCI/ADR-RES = tested on: NCI/ADR-RES
A549 = tested on: A549
SF-268 = tested on: SF-268
HOP-92 = tested on: HOP-92
OVCAR-8 = tested on: OVCAR-8

Measured: GI50

CSc1nc(NC(C)C)c2c(n1)Sc1nc3ccccc3n1C2O (stereo not given)
4.1 µM: HCT-15
inactive: SR 2.84 µM | BT-549 6.79 µM | PC-3 1.83 µM | U-251 3.11 µM | NCI-H23 4.79 µM | 786-0 4.11 µM | SK-MEL-2 7.73 µM | TK-10 14.3 µM | HOP-62 6.37 µM | SW-620 2.27 µM | SN12C 9.57 µM | KM12 3.01 µM | OVCAR-3 2.51 µM | LOX IMVI 7 µM | EKVX 11.5 µM | HCT-116 4.13 µM | DU-145 3.18 µM | ACHN 7.93 µM | K562 3.15 µM | SK-MEL-28 3.34 µM | COLO 205 1.65 µM | M14 5.96 µM | UO-31 5.71 µM | Malme-3M 1.98 µM | CAKI-1 82.4 µM | SK-OV-3 5.28 µM | NCI-H522 2.28 µM | CCRF-CEM 1.75 µM | Hs-578T 2.79 µM | MDA-MB-435 1.74 µM | MOLT-4 2.84 µM | HCC 2998 5.55 µM | MDA-N 2.75 µM | UACC-257 40.9 µM | OVCAR-4 4.98 µM | HT-29 3.09 µM | RXF 393 3.86 µM | IGROV-1 8.04 µM | SF-295 3.45 µM | T47D 4.2 µM | SNB-75 4.61 µM | MDA-MB-231 9.14 µM | NCI/ADR-RES 2.56 µM | A549 3.41 µM | SF-268 4.43 µM | HOP-92 89.5 µM | OVCAR-8 4.9 µM
active: MCF7 0.0465 µM | RPMI-8226 0.0432 µM
